From patent US20130085105A1, “Transdermal Administration Of Peptides” (The Provost, Fellows and Scholars of the College of Holy …, priority 2010, published 2013)
Like-named read-outs stand apart in the source and are kept apart here.

Key:
[1] = In vitro transdermal permeation, diffusion cell, pig epidermis; format: in vitro ADME, domestic pigs
Protocol: The viable epidermal layer was removed from the flanks of freshly sacrificed four month-old female domestic pigs. The flank area of each animal was carefully shaved and the upper 200 μm of skin (Meyer, W., et al., Curr. Prob. Dermatol., 7: 39-52, 1978; de Jalón, et al., J. Control. Rel., 75:191-197, 2001) was harvested using an electric dermatome (Robbins Instruments, Chatham, N.J., U.S.A.). Pigskin epidermal specimens were frozen at −18° C. between layers of PBS-soaked tissue paper enclosed in aluminum foil for up to two weeks prior to use in in vitro permeation studies.
A custom made finite dosing diffusion cell (AGB Scientific, Dublin, Ireland, FIG. 1) based upon and modified from the Keshary-Chien type diffusion cell was used for in vitro permeation studies.
Three to five diffusion cells were used in each permeation experiment and monitoring was performed over a 48 hour period. The cells were linked in series to a thermostatically controlled circulation bath set at 35° C. to mimic human skin surface temperature. Each cell was placed on a stir-plate set at a defined stirring rate of 1,000 rpm. The surface area for permeation provided by each cell was 3.14 cm^2.
Data collected from each permeation study included:
1) the average maximum flux obtained in 48 hours (Jmax),
2) the total absorption characterized as the total weight of peptide delivered transdermally into the receiver compartment over a 48 hour period,
3) the lag time to detectable flux which was equivalent to the latest sampling time at which no peptide was detectable by HPLC analysis of the receiver solution, and
4) an equivalent 48-hour steady state flux was determined by obtaining the slope of the best-fit line for a plot of cumulative flux per unit area versus time (described by McDaid, D. M. et al., Int. J. Pharm., 133:71-83, 1996).
Fresh hairless mouse skin samples or fresh or freshly thawed pig skin samples were mounted onto the diffusion cell with the SC topmost and in contact with the donor system. A rubber or plastic ring was placed on top of the skin sample to secure it in position. The combination of the diffusion cell top, the skin and the rubber ring was securely fastened together by means of a threaded cap. A recorded volume of receiver solution was added to the receiver compartment and maintained at 35° C. The receiver solution was 60/40 (v/v) PBS/propylene glycol (pH 7.1). The propylene glycol fraction was used to increase the solubility of the somatostatin-fatty acid salts. Previous work reported by Morgan et al. (J. Pharm. Sci., 87:1213-1218, 1998) has shown that a 50/50 water/propylene glycol receptor solution had no detrimental effect on the barrier integrity of both hairless mouse and porcine skin.
The receiver solution was allowed to equilibrate at 35° C. for 30 minutes. The experiment was initiated by the application of 1 ml of donor solution containing approximately 5 mg free base peptide in DMSO to the skin surface followed by sealing of the donor compartment with Parafilm®. A narrow-bore hypodermic needle was used to withdraw 1 ml samples from the receiver compartment via the sampling port; at each sampling time, an equal volume of drug-free receiver solution was immediately added back to the receiver compartment. Samples were analyzed by HPLC.
HPLC determination of peptide content in the receiver solution along with the known surface area of skin used (3.14 cm^2) allowed for calculation of transdermal flux (in units of μg/cm^2/hr) for each time point. Panels 1 and 2 of FIG. 2 show flux profiles obtained for the oleate salts of Compound A and Compound B in DMSO which far exceeded the flux profiles for the myristate, octanoate, decanoate, linoleate, nonanote, acetate and laurate salts of Compound A as well as the acetate salt of Compound B in DMSO. […]

[2] = Calculation of required transdermal delivery rate in humans (Eqn. 10.5); conditions: human; for required steady-state transdermal flux: skin area of 20 cm^2, Cpss 1 ng/ml (Compound A), 0.5 ng/ml (Compound B, using Compound A parameters)
Protocol: (§1) The values obtained for the intermediate dose of 21 μg/Kg were used to determine the necessary input rate, i.e., steady state flux, required in humans to achieve therapeutic plasma levels as outlined by Lee et al. (Res. Comm. Mol. Path. Pharmacol., 85, 337-346, 1994) in their studies on melatonin. […] As described by Chatterjee et al. (Pharm. Res., 14:1058-1065, 1997), the following equation can be used to predict required delivery rates, assuming transdermal delivery can be treated as an intravenous infusion:
where K0 is the required zero order delivery rate to achieve a therapeutic steady state plasma concentration (Cpss). […] Thus, for a skin area of 20 cm^2, the required steady-state transdermal flux would be 0.45 μg/cm^2/hr. Assuming a therapeutic plasma level of 0.5 ng/ml for Compound B and utilizing the relevant Compound A parameters, a required steady-state flux of 0.23 μg/cm^2/hr was calculated for a skin area of 20 cm^2.

[3] = Pharmacokinetics of Compound A after i.v. infusion to healthy human volunteers (Chassard et al.); format: in vivo
Protocol: A number of basic equations exist for the prediction of drug plasma levels in humans obtained by transdermal delivery. In order to make use of these equations, basic human pharmacokinetic parameters are required for the drug in question. Chassard et al. (J. Endocrinol. Invest. 20(Supp. to no. 7):30-32, 1997) reported on the pharmacokinetics of Compound A after i.v. infusion of 7, 21 and 42 μg/Kg to healthy human volunteers (n=12) obtaining values as shown in Table 20.
as §1, with “infusion: […]” for “infusion:”

[4] = human, cited from earlier work
[5] = rabbits, iontophoresis; cited from earlier work
[6] = mice, topical with 1% N-decylmethylsulfoxide, within 2 hours of administration; cited from earlier work
[7] = cited from earlier work

With `CC[C@@H]1NC(=O)[C@H](CCCCN)NC(=O)[C@@H](Cc2c[nH]c3ccccc23)NC(=O)[C@H](Cc2ccc(O)cc2)NC(=O)[C@@H](NC(=O)[C@@H](Cc2ccccc2)NC(=O)CN2CCN(CCO)CC2)CSSC[C@@H](C(=O)N[C@H](C(N)=O)[C@@H](C)O)NC1=O` [Compound B, [4-(2-hydroxyethyl)]-1-piperazinylacetyl-D-Phe-c(Cys-Tyr-D-Trp-Lys-Abu-Cys)-Thr-NH2] the “estimated daily systemic delivery across human skin” value [1] was “approximately 2.665 mg” and the “required steady-state transdermal flux” value [2] was 0.23 μg/cm^2/hr.
With `CC(C)[C@@H]1NC(=O)[C@H](CCCCN)NC(=O)[C@@H](Cc2c[nH]c3ccccc23)NC(=O)[C@H](Cc2ccc(O)cc2)NC(=O)[C@@H](NC(=O)[C@H](N)Cc2ccc3ccccc3c2)CSSC[C@@H](C(=O)N[C@H](C(N)=O)[C@@H](C)O)NC1=O` [Compound A, D-2-Nal-c(Cys-Tyr-D-Trp-Lys-Val-Cys)-Thr-NH2] the “estimated daily systemic delivery across human skin” value ([1]; from Jss across pig epidermis, 55/40/5 ethanol/water/cineole, patch area of 20 cm^2) was “approximately 0.675 mg”, the “CL for a 70 Kg human” value ([3]; 292 (ml/hr)/Kg×70 Kg) was 20,440 cm^3/hr and the Vd ([3]; human, plasma, intravenous, 21 ug/kg, from Vss at 21 μg/Kg multiplied by 70 Kg) was 13 L. The “required input rate (K0)” value ([2]; required Cpss=1 ng/ml, Eqn. 10.5) was 8.98 µg/h, the “required steady-state transdermal flux” value [2] was 0.45 μg/cm^2/hr and the AUC ([4]; i.v. infusion 7 μg/Kg) was 21.2 ± 4.1 (ng/ml)/hr. The CL ([4]; i.v. infusion 7 μg/Kg) was 341 ± 62 (ml/hr)/Kg, the Kel ([4]; i.v. infusion 7 μg/Kg) was 0.87 ± 0.11 h⁻¹ and the MRTinfusion ([4]; i.v. infusion 7 μg/Kg) was 42 ± 6 min. The Vss ([4]; i.v. infusion 7 μg/Kg) was 0.194 ± 0.041 L/kg, the t1/2 ([4]; i.v. infusion 7 μg/Kg) was 48 ± 6 min and the AUC ([4]; i.v. infusion 21 μg/Kg) was 74.3 ± 13.7 (ng/ml)/hr. For the same molecule, the CL ([4]; i.v. infusion 21 μg/Kg) was 292 ± 58 (ml/hr)/Kg, the Kel ([4]; i.v. infusion 21 μg/Kg) was 0.69 ± 0.07 h⁻¹ and the MRTinfusion ([4]; i.v. infusion 21 μg/Kg) was 48 ± 6 min. For the same molecule, the Vss ([4]; i.v. infusion 21 μg/Kg) was 0.186 ± 0.044 L/kg, the t1/2 ([4]; i.v. infusion 21 μg/Kg) was 60 ± 6 min and the AUC ([4]; i.v. infusion 42 μg/Kg) was 180.6 ± 46.6 (ng/ml)/hr. For the same molecule, the CL ([4]; i.v. infusion 42 μg/Kg) was 249 ± 72 (ml/hr)/Kg, the Kel ([4]; i.v. infusion 42 μg/Kg) was 0.43 ± 0.09 h⁻¹ and the MRTinfusion ([4]; i.v. infusion 42 μg/Kg) was 54 ± 12 min. For the same molecule, the Vss ([4]; i.v. infusion 42 μg/Kg) was 0.187 ± 0.049 L/kg and the t1/2 ([4]; i.v. infusion 42 μg/Kg) was 96 ± 18 min.
For `C[C@@H](O)[C@@H]1NC(=O)[C@H](CCCCN)NC(=O)[C@@H](Cc2c[nH]c3ccccc23)NC(=O)[C@H](Cc2ccccc2)NC(=O)[C@@H](NC(=O)[C@H](N)Cc2ccccc2)CSSC[C@@H](C(=O)N[C@H](CO)[C@@H](C)O)NC1=O` [octreotide, D-Phe-c(Cys-Phe-D-Trp-Lys-Thr-Cys)-Thr-ol], the apparent bioavailability [5] is listed as “approximately 8%”, the “therapeutic plasma concentration throughout the iontophoretic episode” value [5] is listed as “greater than 1 ng/ml” and the “plasma levels of peptide” value [6] is listed as > 8 ng/mL.
For `CC(C(=O)O)c1ccc(N=[N+]=[N-])cc1` (stereo not drawn) [azidoprofen], the “flux through hairless mouse skin” value ([7]; donor concentration 6 μmol cm-3) is given as 0.236 μmol cm-2 hr-1 and the “flux through hairless mouse skin” value ([7]; donor concentration 15 μmol cm-3) is given as 0.649 μmol cm-2 hr-1.
